Series [1] concerns the target T1, human μ opioid receptor (Homo sapiens (Human), UniProt P35372). The following applies: read-out: Binding affinity μ (Ki, nm).
A further series has as its target human κ opioid receptor (Homo sapiens (Human), UniProt P41145). The following applies: read-out: Binding affinity κ (Ki, nm).
The target of the next series is human δ opioid receptor (Homo sapiens (Human), UniProt P41143). The series can be described thus: Receptor binding, competitive displacement of [3H]naltrindole. The following applies: CHO cell membranes, cloned human receptor, 0.2 nM [3H]naltrindole.
Series [2] addresses T1, human μ opioid receptor. It is filed as biochemical. The protocol:
The [^35S]GTPγS assay measures the functional properties of a compound by quantifying the level of G-protein activation following agonist binding in studies using stably transfected cells, and is considered to be a measure of the efficacy of a compound. Membranes from CHO (Chinese Hamster Ovary) cells that stably expressed the cloned human Mu opioid receptor were used in the experiments. In a final volume of 0.5 mL, 12 different concentrations of each test compound were incubated with 7.5 μg of CHO cell membranes that stably expressed the human μ opioid receptor. The assay buffer consisted of 50 mM Tris-HCl, pH 7.4, 3 mM MgCl2, 0.2 mM EGTA, 3 μM GDP, and 100 mM NaCl. The final concentration of [^35S]GTPγS was 0.080 nM. Nonspecific binding was measured by inclusion of 10 μM GTPγS. Binding was initiated by the addition of the membranes. After an incubation of 60 min at 30° C., the samples were filtered through Schleicher & Schuell No. 32 glass fiber filters. The filters were washed three times with cold 50 mM Tris-HCl, pH 7.5, and were counted in 2 mL of Ecoscint scintillation fluid.

A further series relates to mice. As to the kind of experiment: In vivo behavioral studies (clinical observation assay). Particulars: 10 mg/kg SC, observed over 24 hours.
In a further series the test system is formalin-induced events. The series can be described thus: Formalin model of pain. The series is classed as in vivo. The following applies: rats. The method, then:
Nonfasted male Harlan rats were assigned to treatment group according to a randomized block study design to balance for test chamber and time of day, and day of test (if applicable). Each rat was administered either vehicle or test compound subcutaneously and then placed in their assigned test chamber and acclimated for 25-30 minutes with the chamber enclosure door left open. Data was not collected during this period. Following the acclimation period, each rat was removed individually starting with chamber 1, and dosed 5% formalin subcutaneously into the right rear paw plantar surface (formalin was made from a 37% stock solution, diluted down to 5% with saline).
Data collection started when the first rat was replaced in chamber 1 and the chamber door was closed and latched (skipped 1-minute acclimation screen on software). The number of events (also defined as “number of seconds”), defined as the number of 1-second bins with a change in dynamic force that exceeded an empirically determined threshold value (a value of arbitrary load units, which corresponded visually with rats quietly breathing or sniffing), were totaled in 5-minute intervals. In control rats, the number of events first increases within 5 minutes and then decreases during the subsequent 5 minutes (a quiescent phase) after formalin administration (Phase I, or Early Phase, of the formalin test), then increases again during the subsequent 35 minutes (Phase II, or Late Phase) of the formalin test. Formalin-induced movements detected by the system include licking and flinching of the affected paw as well as hopping and turning.
For constructing summaries for analysis of dose response curves or screens in the formalin test, the total number of events during the first 5 minutes after formalin administration was considered to be Phase I (Early Phase), and the total number of events for minutes 11 to 35 after formalin was considered to be Phase II (Late Phase). Data were analyzed using 1-way ANOVA, and comparisons of drug treatment groups were compared with control groups using appropriate, statistician-guided tests—most commonly Dunnett's for dose response curves and a Student's t-test for two-group (i.e. vehicle vs. positive control) comparison—utilizing JMP statistical software (SAS Institute Inc, Cary, N.C.). Data was expressed as means±SEM. An ED50 was calculated utilizing GraphPad Prism software.

Series [3] deals with CFA-induced weight bearing deficits. As to the kind of experiment: CFA induced weight bearing deficits in rats.
Method: Animals were habituated to the weight bearing test apparatus for 2 days prior to the start of the experiment. On Day 0, rats were tested in the weight bearing apparatus to measure baseline weight bearing of untreated hind paws. Following baseline testing, animals were injected intra-plantar with Complete Freund's Adjuvant (CFA). Using a syringe with a locking hub and 25 G needle, rats were injected via rear, left intra-plantar administration with 100 μL of 100% CFA (1.0 mg/ml) while under light isofluorane anesthesia. No treatment was administered to the right, rear, contralateral paw.
Intra-plantar test-compound administration was done while the animal was under light (3%) isofluorane anesthesia using 0.3 ml insulin syringe. The amount of anesthesia given to the animal during test compound administration was limited to a very short duration, so not to impede measurement of weight bearing at the 5 minute time point. On Day 1 (24 hrs post CFA), rats were tested in the weight bearing apparatus to measure CFA-induced changes in weight bearing. […] Following test compound administration, animals were retested in the weight bearing apparatus at the following time points: 5, 15, 30, 60 and 120 minutes post-test compound administration. Animals were retested on Day 2 (post-CFA) if there is a significant change in CFA induced weight bearing at the 120 minute time point on Day 1.
For series [4], the system named is hot plate response latency. As to the kind of experiment: Rat hot plate model of centrally mediated analgesia. The following applies: SC 7.5 mg/kg, hot plate 52.5° C.
Method: Rats were then tested on the hot plate 5, 30, 60, 120, 240 and 360 minutes later. The amount of time it took to lick one hind paw is measured and is considered the response latency. The mean and SEM of the responses latencies for each experimental group were calculated and a line depicting mean hot plate latency vs. time was generated using GraphPad Prism. An increase in mean response latency above baseline following test compound administration is indicative of an antinociceptive effect.
Setting [5] is: CHO cell membranes, cloned human receptor, 1 nM [3H]U69,593.
The mark [6] stands for this setting: read-out: Binding affinity δ (Ki, nm).
[7] abbreviates: CHO cell membranes, cloned human receptor, […] [3H]DAMGO.
Setting [8] is: [35S]GTPγS binding, CHO membranes.

This note sets out measurements from patent US8962646B2, “Peripherally acting opioid compounds” (Alkermes, Inc., priority 2011, dated 2015).

Entries after “also recorded” stand apart in the source; their conditions may differ. Counter-ions that a name gives are not always drawn. Like-named read-outs stand apart in the source and are kept apart here. Where only a bound is given, the exact number is not on record here.

Method for mice: Groups of mice (n=5 per group; >60 days; 20-25 grams weight) were dosed with vehicle (0.9% sterile saline) or test compounds (10 mg/kg free base, SC) 30 minutes before the first observation period. The occurrence of Straub tail, piloerection, hyperlocomotion, hypolocomotion, circling of the cage, sedation, breathing abnormalities, diuresis, seizure activity and occurrences of death were recorded at 0.5, 1, 2, 4, 6 and 24 hours following dosing.
This is tested with our clinical observation assay where mice are injected with 10 mg/kg subcutaneously with drug and the behaviors are noted over 24 hours.

The term Ki denotes the dissociation constant of the complex between target and ligand, obtained from inhibition or displacement. Take `CN1CC[C@]23CC(=O)CC[C@@]2(O)[C@H]1Cc1ccc(C(=O)NCCc2ccc(-c4ccccc4)cc2)c(O)c13.Cl` [B, reference compound]: the results for the Ki on human μ opioid receptor [1], at human κ opioid receptor (setting [5]) and at human δ opioid receptor (setting [6]) were 0.39 nM, 0.71 nM and 0.0054 µM, respectively. In addition, the “In vitro functional agonism for μ receptor Agonist?” value (from here on “In vitro functional agonism”) at human μ opioid receptor [2] was “Yes”. Besides, the “Clinical Observations after 10 mg/kg subcutaneous injection” value (“Clinical Observations” for short) with mice is on record as “Angioedema; Straub tail, hypolocomotion, mortality”; with mice (listed as Compound-B), “severe effects that reflect mu agonism in the brain; also recorded: observed mortality”.
Take `CN1CC[C@]23CC(=O)CC[C@@]2(O)[C@H]1Cc1ccc(C(=O)NCCc2ccc(-c4ccc(=O)[nH]c4)cc2)c(O)c13` [Compound 3]: the Ki on human μ opioid receptor [1] (setting [7]) amounted to 0.63 nM; at human κ opioid receptor (setting [5]), 180 nM; on human δ opioid receptor (setting [6]), 0.017 µM. Also, the “In vitro functional agonism” value on human μ opioid receptor [2] (setting [8]) was “Yes”. Also, the “Clinical Observations” value in the series on mice is given as “None”.
Usually ED50 stands for the dose that gives a 50% effect, or the effect in half of the subjects. As to `CN1CC[C@]23c4c5ccc(O)c4O[C@H]2[C@@H](O)C=CC3C1C5` (some centres unmarked) [A, morphine, reference compound], the ED50 in the series on formalin-induced events (Rattus norvegicus, sc, subcutaneous, read-out: Formalin test ED50) was 2.4 mg/kg. Moreover, in the series with formalin-induced events (10 mg/kg), the “Effect on early and late phase of formalin test” value is “completely mitigates both the early and late phase effects of formalin”. In addition, the “Analgesic effect with concurrent intra-plantar 75 ug naloxone methiodide” value in series [3] (10 μg/paw intra-plantar) is “significantly inhibited”. For the same compound, in series [3] (intra-plantar, 3, 10 and 30 μg/paw), the “Reversal of CFA-induced weight bearing deficits” value was “dose-dependent reversal of CFA-induced weight bearing deficits”. Besides, in series [4], the “Hot plate antinociception (response latency)” value turned out to be 60 s. Besides, the “Clinical Observations” value in the series with mice is recorded as “Multiple central nervous system like effects: Straub tail, hyperlocomotion, circling”; with mice (listed as morphine) it was “severe effects that reflect mu agonism in the brain”.
As for `CN1CC[C@]23CC(=O)CC[C@@]2(O)[C@H]1Cc1ccc(C(=O)NCCc2nc4ccccc4[nH]2)c(O)c13` [Compound 1], the Ki at human μ opioid receptor [1] was 27 nM; on human κ opioid receptor (setting [5]) it was 850 nM; on human δ opioid receptor (setting [6]) it was 0.49 µM. Moreover, the “In vitro functional agonism” value at human μ opioid receptor [2] is “Yes”. Moreover, in the series on mice, the “Clinical Observations” value was “None”.
“(4bS,9R)—N-(4-(2,4-dioxo-1,2,3,4-tetrahydropyrimidin-5-yl)phenethyl)-4-hydroxy-11-methyl-6-oxo-6,7,8,8a,9,10-hexahydro-5H-9,4b-(epiminoethano)phenanthrene-3-carboxamide [Compound 5]”: the results for the Ki at human μ opioid receptor [1] (setting [7]), at human κ opioid receptor and on human δ opioid receptor (setting [6]) were 1.7 nM, 680 nM and 0.051 µM, respectively. The “In vitro functional agonism” value on human μ opioid receptor [2] (setting [8]) is reported as “Yes”. Also, the “Clinical Observations” value in the series with mice is given as “None”.
Turning to `CN1CC[C@]23CC(=O)CC[C@@]2(O)[C@H]1Cc1ccc(C(=O)NCCc2ccc(-c4cnc(=O)[nH]c4)cc2)c(O)c13` [Compound 11, 4,14-dihydroxy-17-methyl-6-oxo-N-{2-[4-(2-oxo-1,2-dihydropyrimidin-5-yl)phenyl]ethyl}morphinan-3-carboxamide maleate salt], the Ki at human μ opioid receptor [1] (setting [7]) is 1.6 nM; on human δ opioid receptor (uM, read-out: Binding affinity δ (Ki)) it was above 1 µM. The “In vitro functional agonism” value on human μ opioid receptor [2] (setting [8]) is recorded as “Yes”. Also, in the series on mice, the “Clinical Observations” value was “None”.
For `CO[C@@]12CCC(=O)C[C@@]13CCN(C)[C@@H]2Cc1ccc(C(=O)NCCc2ccc(-c4c[nH]c(=O)[nH]c4=O)cc2)c(O)c13` [Compound 7], the Ki at human μ opioid receptor [1] was 0.52 nM; at human κ opioid receptor (setting [5]) it was 860 nM; on human δ opioid receptor (setting [6]), 0.042 µM. Also, the “In vitro functional agonism” value on human μ opioid receptor [2] is recorded as “Yes”. The “Clinical Observations” value with mice is recorded as “None”.
With `CN1CC[C@]23CC(=O)CC[C@@]2(O)[C@H]1Cc1ccc(C(=O)NCCc2ccc(-c4cc[nH]c(=O)c4)cc2)c(O)c13` [Compound 10, 4,14-dihydroxy-N-{2-[4-(2-hydroxypyridin-4-yl)phenyl]ethyl}-17-methyl-6-oxomorphinan-3-carboxamide], the Ki at human μ opioid receptor [1] (setting [7]) is 0.43 nM; at human κ opioid receptor, 140 nM; at human δ opioid receptor (setting [6]), 0.01 µM. Moreover, the “In vitro functional agonism” value at human μ opioid receptor [2] (setting [8]) was “Yes”. For the same compound, the “Clinical Observations” value in the series on mice was “None”.
For `C=C1CC[C@@]2(O)[C@H]3Cc4ccc(C(=O)NCCc5ccc(-c6c[nH]c(=O)[nH]c6=O)cc5)c(O)c4[C@@]2(CCN3C)C1` [Compound 6], the Ki stood at 3.5 nM on human μ opioid receptor [1] (setting [7]), 1000 nM at human κ opioid receptor (setting [5]) and 0.097 µM at human δ opioid receptor (setting [6]). Moreover, the “In vitro functional agonism” value on human μ opioid receptor [2] (setting [8]) is listed as “Yes”. Further, the “Clinical Observations” value in the series on mice was “None”.
The matching figures for `CN1CC[C@]23CC(=O)CCC2[C@H]1Cc1ccc(C(=O)NCCc2nc4ccccc4[nH]2)c(O)c13` (some centres unmarked) [Compound 9]: 1.7 nM, 400 nM, 0.28 µM, “Yes” and “None”.
On to `CN1CC[C@]23CC(=O)CC[C@@]2(O)[C@H]1Cc1ccc(C(=O)NCCc2ccc(-c4cn[nH]c4)cc2)c(O)c13` [Compound 8], for which the values for the Ki at human μ opioid receptor [1] (setting [7]), on human κ opioid receptor (setting [5]) and on human δ opioid receptor (setting [6]) were 0.15 nM, 19 nM and 0.0021 µM, respectively. The “In vitro functional agonism” value at human μ opioid receptor [2] (setting [8]) is given as “Yes”. Moreover, in the series on mice, the “Clinical Observations” value is on record as “None”.
As for `O=C1CC[C@@]2(O)[C@H]3Cc4ccc(C(=O)NCCc5ccc(-c6c[nH]c(=O)[nH]c6=O)cc5)c(O)c4[C@@]2(CCN3CCc2ccccc2)C1` [Compound 2, N-{2-[4-(2,4-Dioxo-1,2,3,4-tetrahydropyrimidin-5-yl)phenyl]ethyl}-4,14-dihydroxy-6-oxo-17-(2-phenylethyl)morphinan-3-carboxamide], at human μ opioid receptor [2] (setting [8]), the “In vitro functional agonism” value is “Yes”. The “Clinical Observations” value with mice is “None”.
